Results: patent US20070128719A1, “ISOLATION AND EXPANSION OF ANIMAL CELLS IN CELL CULTURES” (TissueTech, Inc., priority 2003, published 2007)

What was measured:
[1] = test system: FKHRL1; assay: Western blot of FKHRL1 phosphorylation in limbal epithelial cells expanded on intact AM; assay type: cell-based, human
[2] = test system: human limbal explants; assay: Epithelial outgrowth from human limbal explants cultured on intact AM with kinase inhibitors; assay type: cell-based; conditions: for epithelial outgrowth: limbal explant on intact AM in SHEM, vs DMSO control
Method: Human AM was provided by Bio-Tissue (Miami, Fla.) and stored at −80° C. before use. AM was devitalized by freezing and thawing and washed three times with HBSS before being fastened onto a 30 mm culture insert, Millicel-CM (which generated an insert with 23 mm diameter covered by AM), and placed in a 6 well plate (Meller, D. and Tseng S C G, Invest Ophthalmol Vis Sci., 40:878-86, 1999).
After removal of excessive sclera, iris, corneal endothelium, conjunctiva, and Tenon's capsule, the limbal ring was separated by a 7.5 mm trephine from donor human corneas. Each limbal ring was rinsed 3 times with SHEM media. The limbal ring was then exposed for 10 min to 1.2 units/ml Dispase II in Mg^2+- and Ca^2+-free HBSS at 37° C. under 95% humidity and 5% CO2. Following three rinses with SHEM medium, each limbal ring was subdivided into two halves and each half further subdivided into 6 pieces of 1×1.5×2.5 mm explants. To eliminate variations of age, sex, and race, explants from the corresponding position of the same donor cornea were selected for the control and the experimental group, respectively. An explant was placed on the center of intact AM or plastic with the epithelial side facing up and cultured in SHEM medium. The experimental group was added with the inhibitor of desired concentration, while the control group was added with the same concentration of DMSO as the vehicle which was used to dissolve each inhibitor. The culture was maintained at 37° C. under 95% humidity and 5% CO2, the medium was changed every other day, and their outgrowth was monitored daily for 17 days using an inverted phase microscope (Nikon, Japan). The outgrowth area was digitized every other day by Adobe Photoshop 5.5 and analyzed by NIH ImageJ 1.30v (NIH, Bethesda, Md.).
All experiments were performed at least in triplicate. Summary data were reported as means±S.D., compiled and analyzed by MicroSoft Excel™ (MicroSoft, Redmont, Wash.). The mean and standard deviation were calculated for each group using the appropriate version of Student's unpaired t-test. Test results were reported as two-tailed p values, where p<0.05 was considered statistically significant.

[3] = test system: Akt; assay: Western blot of Akt phosphorylation in limbal epithelial cells expanded on intact AM; assay type: cell-based, human
[4] = test system: p44/42 MAPK; assay: Western blot of p44/42 MAPK phosphorylation in limbal epithelial cells expanded on intact AM; assay type: cell-based, human
[5] = test system: p44/42 MAPK; conditions: 10 μM; cited from earlier work
[6] = test system: murine limbal epithelial cells; assay: Clonal expansion of single cell expanded murine limbal epithelial cells in KSFM; assay type: cell-based, mouse; conditions: 10 pg/ml and 150 pg/ml; 50 cells/cm^2 in KSFM, 6 days
Method: Single cell expanded murine limbal epithelial cells were seeded at 50 cells/cm^2 in KSFM and cultured for 6 days. […] Cells seeded at 20,000 cells/cm^2 in KSFM became enlarged.

[7] = test system: murine keratocytes; assay: α-SMA expression (myofibroblast differentiation) of murine keratocytes; assay type: cell-based, mouse; conditions: cells on plastic; 5 days of continuous stimulation with TGF-β1
Method: TGF-β1 Challenge and Neutralizing Antibody—To assess whether TGF-β1 affected the cell phenotype, triggered Smad 2 and Smad 4 nuclear translocation, and differentiated keratocytes into myofibroblasts, 10 ng/ml human recombinant TGF-β1 (Sigma, St Louis, Mo.) was added to serum-free DMEM/ITS cells for 3 h or 5 days when cells expanded on AM were passed to 24 well plastic dishes and AM inserts, respectively. In addition, primary keratocytes were seeded and cultured on AM or plastic for 3 days in DMEM/ITS or DMEM/10% FBS for 24 h, of which the latter was treated with or without 10 μg of a monoclonal antibody neutralizing TGF-β1, -β2, and -β3 (R&D Systems, Minneapolis, Minn.) per ml of DMEM medium for 48 h before adenoviral transfection.
To confirm that TGF-β was indeed responsible for Smad signaling in DMEM/10% FBS, a neutralizing antibody to three TGF-β isoforms was added to the plastic cultures. Nuclear translocation of Smad 4 was prevented. […] Thirty-nine percent of cells cultured on plastic differentiated into α-SMA-expressing myofibroblasts, but no cell on AM expressed α-SMA even after 5 days of continuous stimulation with TGF-β1.

[8] = test system: murine limbal epithelial progenitor cells; assay: α-SMA expression in clonal cultures of murine limbal epithelial progenitor cells; assay type: cell-based, mouse; conditions: 5 ng/ml in KSFM; low seeding density (500 cells/cm^2)
Method: In clonal cultures of murine limbal epithelial progenitor cells, expression of α-SMA, a marker for myofibroblasts, was not detected when clonally expanded murine limbal epithelial cells were seeded at low density (500 cells/cm^2), but increasingly detected when cells were seeded at the intermediate (5,000 cells/cm^2) and high seeding densities (50,000 cells/cm^2). Cells expressing α-SMA were larger and squamous and could also express p63 in the nucleus. […] Under these conditions, expression of S100A shifted from cytoplasm to the nucleus, signaling of Smad 4 moved from cytoplasm to the nucleus, expression of […] moved from the intercellular junction to the cytoplasm and the perinucleus, the signaling of β-catenin moved from the intercellular junctions to the nucleus), and the signaling of LEF-1 also moved from the cytoplasm to the nucleus.

[9] = test system: Smad2; assay: Nuclear accumulation of Smad2 in rhesus monkey keratocytes; assay type: cell-based; conditions: 4 ng/ml added in KSFM for 48 hours (19.3±5.1% in KSFM alone)
Excerpt: Three rhesus monkeys (Macaca Mulatta), 4 years old, and rabbit and mouse cornea were obtained from an approved tissue-sharing program after euthanasia. An entire anterior corneoscleral segment was removed from the globe by cutting near the limbus with Wescott's scissors. A central cornea was obtained with an 8.0 mm Barron's trephine and immediately transferred to KSFM medium (cat# 17005-042, GIBCO Invitrogen corporation, Carlsbad, Calif.). After removing Descemet's membrane and the corneal endothelium, the corneal epithelium was removed by dispase digestion for 16 h at 4° C. and the remaining corneal stroma was incubated at 37° C. for 16 h in 2.5 ml of DMEM containing 1 mg/ml collagenase A, 20 mM HEPES, 50 μg/ml gentamicin and 1.25 μg/ml amphotericin in a plastic dish. Afterwards, corneal stromal cells were resuspended in 1 ml of KSFM, centrifuged to remove residual matrices, resuspended in KSFM, and seeded on plastic dishes in KSFM or DMEM containing insulin, transferrin, and selenium supplement (DMEM/ITSG) (cat# 41400-045, GIBCO, Carlsbad, Calif.) or 10% FBS (DMEM/10% FBS).
When the primary culture on plastic reached 80% confluence, cells were rendered into single cells by incubation in BSS containing 0.25% trypsin/1 mM EDTA at 37° C. for 1 to 5 minutes, and the enzymatic reaction was stopped by adding soybean-trypsin inhibitor. […]

[10] = test system: Smad-mediated TGF-β signaling; assay: Immunolocalization of Smad 2 and Smad 4 in murine keratocytes; assay type: cell-based, mouse; conditions: 10 ng/ml, cells on plastic in DMEM/ITS (16% without TGF-β1)
Method: Isolation and Culture of Keratocytes on Plastic or AM—Albino mice eyes were enucleated by forceps, washed profusely in PBS, and incubated in DMEM containing 20 mM HEPES, 15 mg/ml dispase II (Roche, Indianapolis, Ind.) and 100 mM sorbitol at 4° C. for 18 h (see Espana et al., Invest Ophthalmol Vis Sci. 44:4275-4281, 2003; Kawakita et al., Invest Ophthalmol Vis Sci. 45:3507-3512, 2004). The entire corneal epithelium loosened by this treatment was subsequently removed by vigorous shaking. Under a dissecting microscope, the corneal stroma was separated from the sclera at the corneoscleral limbus by pressing down the limbus with a 27 G needle while the eye was held with a forcep. Isolated corneal stromas were incubated overnight at 37° C. in DMEM containing 1.25 mg/ml collagenase A (Roche, Indianapolis, Ind.), 50 μg/ml gentamicin and 20 mM HEPES in a non-coated plastic dish until the tissue became “smeared” onto the dish bottom. Digested corneal stromas in collagenase A were centrifuged at 800×g for 5 min. Keratocytes were resuspended in DMEM containing 20 mM HEPES, ITS (5 μg/ml insulin, 5 μg/ml transferrin and 5 ng/ml sodium selenite), 50 μg/ml gentamicin and 1.25 μg/ml amphotericin B with or without 10% FBS. […]

[11] = test system: TGF-β1 promoter; assay: TGF-β promoter assay in human limbal epithelial cells; assay type: cell-based
Method: Human corneal fibroblasts were transiently transfected with the aforementioned adenoviral promoter constructs. […] 2, 2005 and entitled “Suppression Of TGF-B Activity By Amniotic Membrane Extracts, Compositions Thereof, And Methods For The Prevention And Suppression Of Scarring And Inflammation” in a dose-dependent manner (from 0.04 to 125 μg/ml) in human corneal fibroblasts. […] The suppressive effect of both AME and HA alone was lost after pretreatment with HAse. […] A similar result was obtained for TGF-βRII promoter activity.

[12] = after 17 days of treatment at 50 μM
[13] = after 17 days of treatment at 10 μM

Q: For CCOC(=O)c1ccc2[nH]c3c(OC)c4[nH]c5ccc(C(=O)OCC)cc5c4cc3c2c1 [SR13668], which “Thr32 phosphorylation of FKHRL1” value ([1]; 50 μM) is on record?
A: abolished

Q: What about the “reduction of the outgrowth rate” value ([2]; 10 μM, from day 5 to day 11) of the same compound?
A: 50%

Q: What about the “reduction of the outgrowth rate” value ([2]; 10 μM, from day 11 on) of the same compound?
A: 60%

Q: And the epithelial outgrowth ([2]; 50 μM)?
A: completely inhibited

Q: What about the “time to re-initiation of outgrowth after switch to fresh medium” value (“time to re-initiation of outgrowth” below) [2, 12] of the same compound?
A: 2 days

Q: And the “time to reach ~80% confluence after removal of inhibitor” value [2, 12]?
A: 30 days

Q: What about the “phosphorylation of Akt at Thr308 and Ser473” value ([3]; 50 μM) of the same compound?
A: abolished

Q: And the “p44/42 MAPK phosphorylation” value ([4]; 50 μM)?
A: did not change

Q: With N#CC(=C(/N)Sc1ccccc1N)/C(C#N)=C(\N)Sc1ccccc1N [U0126] as the compound, how does the “phosphorylation of FKHRL1 at Thr32” value ([1]; 10 μM) read?
A: decreased

Q: What about the “p44/42 MAPK phosphorylation in many cells” value [5] of the same compound?
A: completely inhibited

Q: And the “day at which epithelial outgrowth was noted / started” value ([2]; 10 μM)?
A: 8 days

Q: And the “average outgrowth area at day 17” value ([2]; 10 μM, day 17)?
A: 17.0±3.0 mm^2

Q: What about the epithelial outgrowth ([2]; 10 μM, up to 17 days) of the same compound?
A: almost halted

Q: What about the “time to re-initiation of outgrowth” value [2, 13] of the same compound?
A: 2 days

Q: And the “time to reach ~80% confluence after removal of inhibitor” value [2, 13]?
A: 25 days

Q: What about the “phosphorylation of Akt at Ser473” value ([3]; 10 μM) of the same compound?
A: decreased

Q: What about the “phosphorylation of Akt at Thr308” value ([3]; 10 μM) of the same compound?
A: eliminated

Q: What about the “phosphorylation of p44/42 MAPK (Thr202 and Tyr204)” value ([4]; 10 μM) of the same compound?
A: abolished

Q: For “TGF-β1: human recombinant TGF-β1 (Sigma)”, which clonal expansion [6] is on record?
A: dose-dependently suppressed

Q: And the “cells differentiated into α-SMA-expressing myofibroblasts” value [7]?
A: Thirty-nine

Q: What about the α-SMA expression [8] of the same compound?
A: upregulated

Q: What about the “percentage of nuclear accumulation of Smad2” value [9] of the same compound?
A: 34.7±4.9%

Q: What about the “cells with nuclear localization of Smad 4” value ([10]; 3 h) of the same compound?
A: 67%

Q: And the “cells with nuclear localization of Smad 4” value ([10]; 5 days)?
A: 85%

Q: With O=c1cc(N2CCOCC2)oc2c(-c3ccccc3)cccc12 [LY294002] as the compound, how does the epithelial outgrowth ([2]; 5 μM, up to 17 days) read?
A: not significantly inhibited

Q: And the epithelial outgrowth ([2]; 10 μM, up to 17 days)?
A: not significantly inhibited

Q: And the “time to re-initiation of outgrowth” value [2, 12]?
A: 2 days

Q: What about the “time to reach ~80% confluence after removal of inhibitor” value [2, 12] of the same compound?
A: 30 days

Q: With hyaluronic acid [HA] as the compound, how does the “suppressive effect on TGF-β1 promoter activity after pretreatment with HAse” value [11] read?
A: lost
